Measurements published in patent publication EP3449923A1, “COMBINATION OF BEN[…]-CANCER AGENT AND A SECOND ANTI-CANCER AGENT” (MEI Pharma, Inc., priority 2007, dated 2008).

Test system: HCT 116 (colon)
Assay: Human xenograft model, tumor growth inhibition
Format: in vivo, female athymic nude mice
Conditions: A8 50 mg/kg po qd x 14 + vehicle (saline) iv D1,8,15
Protocol: To assess in vivo antitumor activity in human xenograft models, female athymic nude mice, 12 to 14 weeks of age, were implanted subcutaneously in the flank with human cancer cells. When the tumors reached approximately 100 mm^3 in size, the mice were pair-matched into various treatment groups. For oral administration, compounds were dissolved in a mixture of 0.5% methylcellulose and 0.1% Tween 80 and administered by gavage to the tumor-bearing mice. For i.v.andi.p..administration, compounds were dissolved in 0.9% NaCI and for the i.v. administration, the compound was administered via the tail vein.
Percent tumor growth inhibition (%TGI) was calculated as %TGI = (Cday a−Tday a)/(Cday a−Cday 1) × 100 [formula]
Where C is the median tumor volume of the control group, T is the median tumor volume of the treatment group, and day a is the day of assessment.
It is evident that the combination of a benzimidazole based anti-cancer agent such as Compound (A8) with the different anti-cancer agents enhanced the anti-tumor effect as compared to administering either of the drug on its own. Table 5: Examples of combination of Compound (A8) and anti-cancer agents in in vivo cancer models

SMILES: CCCCc1nc2cc(/C=C/C(=O)NO)ccc2n1CCN(CC)CC [Compound A8, 3-[2-Butyl-1-(2-diethylamino-ethyl)-1H-benzimidazol-5-yl]-N-hydroxy-acrylamide]
- %TGI at Day 15: 64%
